Reference: the NIST ThermoML archive (doi:10.1021/je030107c)
Numbers after ± are expanded uncertainties.

Assays:
[1] = xn = mol fraction of the nth substance listed; conditions: 101.3 kPa, Liquid; for viscosity: Capillary tube (Ostwald / Ubbelohde) method; for speed of sound: Linear variable-path acoustic interferometer; for mass density: Pycnometric method
[2] = refractive index (Na D-line) (dimensionless); xn = mol fraction of the nth substance listed; conditions: 101.3 kPa, Liquid, Standard Abbe refractometry

C1COCCO1 [1,4-dioxane] + CCCCCC
Conditions | mass density, 298.15 K [kg/m3] | mass density, 303.15 K [kg/m3] | mass density, 308.15 K [kg/m3] | refractive index, 298.15 K | refractive index, 303.15 K | refractive index, 308.15 K | speed of sound, 298.15 K [m/s] | viscosity, 298.15 K [mPa·s] | viscosity, 303.15 K [mPa·s] | viscosity, 308.15 K [mPa·s]
[1], x1 = 0.1135 | 682 ± 0.4 | 677.3 ± 0.4 | 672.5 ± 0.4 | – | – | – | 1087 ± 3 | 0.333 ± 0.003 | 0.319 ± 0.003 | 0.304 ± 0.003
[1], x1 = 0.2057 | 706.4 ± 0.4 | 701.4 ± 0.4 | 696.5 ± 0.4 | – | – | – | 1099 ± 3 | 0.357 ± 0.003 | 0.34 ± 0.003 | 0.323 ± 0.003
[1], x1 = 0.3099 | 736.2 ± 0.4 | 731.2 ± 0.4 | 726.1 ± 0.4 | – | – | – | 1116 ± 3 | 0.391 ± 0.004 | 0.372 ± 0.003 | 0.353 ± 0.003
[1], x1 = 0.4032 | 765.7 ± 0.4 | 760.5 ± 0.4 | 755.3 ± 0.4 | – | – | – | 1132 ± 3 | 0.429 ± 0.004 | 0.408 ± 0.004 | 0.386 ± 0.003
[1], x1 = 0.501 | 799.6 ± 0.5 | 794.3 ± 0.5 | 788.9 ± 0.5 | – | – | – | 1154 ± 3 | 0.482 ± 0.004 | 0.455 ± 0.004 | 0.429 ± 0.004
[1], x1 = 0.6028 | 838.1 ± 0.5 | 832.7 ± 0.5 | 827.2 ± 0.5 | – | – | – | 1185 ± 3 | 0.549 ± 0.005 | 0.517 ± 0.004 | 0.485 ± 0.004
[1], x1 = 0.7006 | 878.7 ± 0.5 | 873.3 ± 0.5 | 868 ± 0.5 | – | – | – | 1220 ± 3 | 0.634 ± 0.005 | 0.596 ± 0.005 | 0.557 ± 0.005
[1], x1 = 0.7991 | 924 ± 0.5 | 918.3 ± 0.5 | 912.4 ± 0.5 | – | – | – | 1257 ± 3 | 0.753 ± 0.006 | 0.705 ± 0.006 | 0.656 ± 0.005
[1], x1 = 0.8962 | 972.1 ± 0.6 | 966.4 ± 0.6 | 960.8 ± 0.6 | – | – | – | 1303 ± 3 | 0.912 ± 0.007 | 0.849 ± 0.007 | 0.787 ± 0.006
[1], x1 = 1 | 1027.6 ± 0.6 | 1021.9 ± 0.6 | 1016.2 ± 0.6 | – | – | – | 1347 ± 3 | 1.166 ± 0.009 | 1.069 ± 0.008 | 0.984 ± 0.008
[2], x1 = 0.1135 | – | – | – | 1.3758 ± 0.0011 | 1.3728 ± 0.0011 | 1.37 ± 0.0011 | – | – | – | –
[2], x1 = 0.2057 | – | – | – | 1.3787 ± 0.0011 | 1.3756 ± 0.0011 | 1.3726 ± 0.0011 | – | – | – | –
[2], x1 = 0.3099 | – | – | – | 1.3824 ± 0.0011 | 1.3795 ± 0.0011 | 1.3767 ± 0.0011 | – | – | – | –
[2], x1 = 0.4032 | – | – | – | 1.3864 ± 0.0011 | 1.3838 ± 0.0011 | 1.3814 ± 0.0011 | – | – | – | –
[2], x1 = 0.501 | – | – | – | 1.3906 ± 0.0011 | 1.3878 ± 0.0011 | 1.385 ± 0.0011 | – | – | – | –
[2], x1 = 0.6028 | – | – | – | 1.3954 ± 0.0011 | 1.3928 ± 0.0011 | 1.3903 ± 0.0011 | – | – | – | –
[2], x1 = 0.7006 | – | – | – | 1.4014 ± 0.0011 | 1.3986 ± 0.0011 | 1.3959 ± 0.0011 | – | – | – | –
[2], x1 = 0.7991 | – | – | – | 1.4078 ± 0.0011 | 1.4048 ± 0.0011 | 1.4017 ± 0.0011 | – | – | – | –
[2], x1 = 0.8962 | – | – | – | 1.414 ± 0.0011 | 1.4119 ± 0.0011 | 1.4098 ± 0.0011 | – | – | – | –
[2], x1 = 1 | – | – | – | 1.4201 ± 0.0011 | 1.417 ± 0.0011 | 1.4143 ± 0.0011 | – | – | – | –
